Measurements as given in patent US12122760B2, “Compound, composition, and use thereof in preparation of drug” (CHANGSHA ZEDA MEDICAL TECH. CO., LTD, priority 2019, dated 2024).

Tests used:
Type in all cases: cell-based
[1] = target: T1, androgen receptor (AR) (Homo sapiens, UniProt P10275); test: Luciferase reporter gene experiment (MMTV-LUC + pSV-AR in 293T cells); settings: 10 nM DHT, FIG. 2
T1 construct: expressed in transfected cells; host or cells: 293T cells
T1 sequence (P10275 1-920): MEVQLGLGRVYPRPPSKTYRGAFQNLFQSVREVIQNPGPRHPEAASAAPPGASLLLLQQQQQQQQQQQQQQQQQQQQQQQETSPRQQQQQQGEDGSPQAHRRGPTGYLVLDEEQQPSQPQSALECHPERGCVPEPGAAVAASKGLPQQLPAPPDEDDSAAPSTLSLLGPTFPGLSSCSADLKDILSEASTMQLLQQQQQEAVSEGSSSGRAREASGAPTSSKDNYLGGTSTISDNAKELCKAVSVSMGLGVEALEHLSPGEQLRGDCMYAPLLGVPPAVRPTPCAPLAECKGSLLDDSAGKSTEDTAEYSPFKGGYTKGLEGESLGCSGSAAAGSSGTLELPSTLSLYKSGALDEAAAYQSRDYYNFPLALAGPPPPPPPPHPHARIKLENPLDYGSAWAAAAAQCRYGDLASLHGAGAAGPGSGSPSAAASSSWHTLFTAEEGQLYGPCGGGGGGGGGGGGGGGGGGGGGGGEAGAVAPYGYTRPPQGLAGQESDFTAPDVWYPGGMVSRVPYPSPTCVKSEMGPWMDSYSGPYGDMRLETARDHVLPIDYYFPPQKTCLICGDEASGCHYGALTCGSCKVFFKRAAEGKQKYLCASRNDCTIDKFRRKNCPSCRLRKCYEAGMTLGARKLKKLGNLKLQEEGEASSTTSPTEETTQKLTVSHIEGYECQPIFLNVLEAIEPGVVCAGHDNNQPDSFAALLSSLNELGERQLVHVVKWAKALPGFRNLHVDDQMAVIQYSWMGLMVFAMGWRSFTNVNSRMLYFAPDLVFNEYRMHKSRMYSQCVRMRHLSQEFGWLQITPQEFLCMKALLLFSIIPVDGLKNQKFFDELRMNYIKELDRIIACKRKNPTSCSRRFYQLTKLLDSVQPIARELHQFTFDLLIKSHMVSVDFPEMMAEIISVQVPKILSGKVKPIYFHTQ
Method: 293T cells are cultured in a 96-well plate. AR plasmids and luciferase genes with AR target promoters are co-transfected in the 293T cells. AR activates the target promoters to express luciferase, and the expression level of the luciferase is directly proportional to AR activation. Adding DHT to the cells can activate AR and express the luciferase, thus enhancing fluorescence signal detection. By detecting the fluorescent signal, it can be examined whether an added drug has AR antagonist activity.
The luciferase reporter gene plasmid MMTV-LUC containing the androgen receptor (AR) target promoters and the plasmid pSV-AR expressing the androgen receptor (AR) are constructed. The 293T cells are inoculated in a 96-well plate, wherein each well containing 1×10^4 cells. The cells are incubated overnight to stick to the wall. On the second day, Lipofectamine® 3000 (Life technologies, USA) is used to transfect the plasmid into the cells. Each well is added with 180 ng of MMTV-LUC plasmid and 20 ng of pSV-AR plasmid. On the third day, each well is added with 10 nM of the DHT and the drugs of different concentrations of 1 nM, 10 nM, 100 nM, 1 uM, 10 uM, 25 uM, 50 uM respectively. The control is 10 nM of the DHT. On the fifth day, a luciferase reporter gene detection kit (Biyuntian company, China) is used to process the cells. 100 uL of cell lysate is added to the 96-well plate, and lyse for 20 min. Then centrifuging is performed at 4 degrees and 10000 g for 3 min. 50 uL of supernatant is taken and 100 uL of a luciferase detection reagent is added. After mixing, chemiluminescence is immediately detected on the multi-functional microplate reader. Graphpad Prism software is used to draw a curve by using the drug concentration as an abscissa and using drug fluorescence value/positive control fluorescence value as an ordinate. Herein MDV3100 is the positive control.

[2] = system: AR-positive VCaP cells; test: Selective effects of the drug to cells (MTS; VCaP versus 293T and DU145); settings: 4 days treatment, FIG. 10
Method: 293T cells are AR-negative human embryonic kidney cells, DU145 cells are AR-negative prostate cancer cells, and VCaP cells are AR-positive prostate cancer cells. These three types of the cells are cultured in the 96-well plates and treated with the drugs (in the concentration gradient) respectively for 4 days. Then the inhibition of the drugs on cell proliferation are measure by MTS. Detailed process is as follows:
The VCaP cells are cultured with 5% CSS and 1640 medium without phenol red, and inoculated in the 96-well plates, and 1×10^4 cells are added to each well. The 293T cells and the DU145 cells are cultured with 10% FBS and 1640 medium, and inoculated in the 96-well plates, and 2×10^3 cells are added to each well. The cells are incubated overnight to make the cells stick to a wall. Then the different concentrations of the drugs are added on the second day. After treatment with the drugs for 4 days, cell viability is measured by the MTS kit (Promega, USA). To each well, 10% of an MTS reagent is added, and incubation continued for 2 hours. The absorbance value at […] is then measured by the multi-functional microplate reader. The Graphpad Prism software is used to draw a curve by using the drug concentration as an abscissa and using the absorbance value of the drug treatment/the absorbance value of the blank treatment cell as an ordinate.

[3] = system: MDA-MB-453 TNBC cells; test: Cell proliferation of MDA-MB-453 (CCK8 cell viability); settings: 72 h
Method: 8000 MDA-MB-453 cells were plated in each well of a 96-well plate and incubated for 48 hours. Then cells were treated with increasing concentrations of Zeta55, MDV3100 or SAHA for 72 h, At last, cell viability was measured using a CCK8 Assay kit.

[4] = system: Histone deacetylase (HDAC); test: HDAC inhibitory activity: Kac-H3 Western Blot in VCaP cells; settings: 10 uM drug, 24 h, FIG. 5
Method: The VCap cells are cultured in the 6-well plate. After treating the VCap cells with the drugs for 24 hours, acetylation levels of the tubulin in the cytoplasm and the H3 protein in the nucleus are examined by the western blot. An experiment process is as follows:
The VCaP cells are spread in the 6-well plate. 5×10^5 cells are inoculated per well, and incubated overnight to make the cells stick to a wall. Then 10 uM of the drug is added to each well. The cells are collected after being incubated for 24 h. The EpiQuik Total Histone Extraction kit (Epigentek, USA) is used to extract the histones, and the Western Blot method is used to detect expression levels of Kac-H3 (localized cell nucleus) in the cells after adding the different drugs.

## N#Cc1ccc(N2C(=O)C3(CCC3)N(c3ccc(C(=O)NO)c(F)c3)C2=S)cc1C(F)(F)F [Zeta 55, 4-(7-(4-cyano-3-(trifluoromethyl)phenyl)-8-oxo-6-thio-5,7-diazaspiro[3.4]octane-5-yl)-2-fluoro-N-hydroxybenzamide]
[1]
  antagonist effect on the AR, antagonistic ability from high to low: Zeta32>Zeta55>Zeta34>Zeta57>Zeta33
[2]
  proliferation inhibition effect on AR-positive VCaP cells relative to AR-negative cells (293T and DU145): more than 20 times
  selectivity of proliferation inhibition: selective proliferation inhibition on the AR-positive VCaP cells
[3]; CCK8, FIG. 9
  potency relative to MDV3100: about 1.5 times
[3]; Homo sapiens, CCK8, FIG. 9, read-out: IC50 of dose-dependent killing of the cells
  IC50: 11.1 µM
[4]
  H3 acetylation in the nucleus (HDAC inhibitory activity): superior
